The numbers were not newly measured in patent publication US20040229771A1, “Method of reducing decline of or preserving residual renal function” (priority 2003, published 2004), which cites them from elsewhere.

The series relates to cell culture. The conditions noted are these: cell culture experiments, reference (2).

Consider `O=CC(=O)C=CC(O)CO` (stereo not shown) [3,4-DGE, 3,4-dideoxyglucosone-3-ene], for which the immunosuppressive effects entry is “immunosuppressive effects”.
